Assay: Phase I SRD/MRD safety and tolerability
Assay type: in vivo, human (healthy subjects)
[1] = SRD single dose 17.5 mg (n = 6)

## C=CC(=O)N1CC[C@H](Oc2nc(-c3n[nH]c(=O)[nH]3)cc3ccccc23)C1 [TAK‐020]
SRD single dose 0.1 mg (n = 6)
  TEAEs: 0 n (%)
  TEAEs Leading to DC: 0 n (%)
  TEAEs, Mild: 0 n (%)
  TEAEs, Moderate: 0 n (%)
  TEAEs, Not related: 0 n (%)
  TEAEs, Related: 0 n (%)
  TEAEs, Severe: 0 n (%)
SRD single dose 0.5 mg (n = 6)
  Deaths: 0 n (%)
  Serious TEAEs: 0 n (%)
  Serious TEAEs, Not related: 0 n (%)
  Serious TEAEs, Related: 0 n (%)
  TEAEs: 0 n (%)
  TEAEs Leading to DC: 0 n (%)
  TEAEs, Mild: 0 n (%)
  TEAEs, Moderate: 0 n (%)
  TEAEs, Not related: 0 n (%)
  TEAEs, Related: 0 n (%)
  TEAEs, Severe: 0 n (%)
SRD single dose 2.5 mg (n = 6)
  Deaths: 0 n (%)
  Serious TEAEs: 0 n (%)
  Serious TEAEs, Not related: 0 n (%)
  Serious TEAEs, Related: 0 n (%)
  TEAEs: 1 (16.7) n (%)
  TEAEs Leading to DC: 0 n (%)
  TEAEs, Mild: 1 (16.7) n (%)
  TEAEs, Moderate: 0 n (%)
  TEAEs, Not related: 0 n (%)
  TEAEs, Related: 1 (16.7) n (%)
  TEAEs, Severe: 0 n (%)
SRD single dose 4.4 mg (n = 6)
  Deaths: 0 n (%)
  Serious TEAEs: 0 n (%)
  Serious TEAEs, Not related: 0 n (%)
  Serious TEAEs, Related: 0 n (%)
  TEAEs: 0 n (%)
  TEAEs Leading to DC: 0 n (%)
  TEAEs, Mild: 0 n (%)
  TEAEs, Moderate: 0 n (%)
  TEAEs, Not related: 0 n (%)
  TEAEs, Related: 0 n (%)
  TEAEs, Severe: 0 n (%)
SRD single dose 8.8 mg (n = 6)
  Deaths: 0 n (%)
  Serious TEAEs: 0 n (%)
  Serious TEAEs, Not related: 0 n (%)
  Serious TEAEs, Related: 0 n (%)
  TEAEs: 1 (16.7) n (%)
  TEAEs Leading to DC: 0 n (%)
  TEAEs, Mild: 1 (16.7) n (%)
  TEAEs, Moderate: 0 n (%)
  TEAEs, Not related: 0 n (%)
  TEAEs, Related: 1 (16.7) n (%)
  TEAEs, Severe: 0 n (%)
[1]
  Deaths: 0 n (%)
  Serious TEAEs: 0 n (%)
  Serious TEAEs, Not related: 0 n (%)
  Serious TEAEs, Related: 0 n (%)
  TEAEs: 0 n (%)
  TEAEs Leading to DC: 0 n (%)
  TEAEs, Mild: 0 n (%)
  TEAEs, Moderate: 0 n (%)
  TEAEs, Not related: 0 n (%)
  TEAEs, Related: 0 n (%)
  TEAEs, Severe: 0 n (%)
SRD single dose 35 mg (n = 6)
  Deaths: 0 n (%)
  Serious TEAEs: 0 n (%)
  Serious TEAEs, Not related: 0 n (%)
  Serious TEAEs, Related: 0 n (%)
  TEAEs: 0 n (%)
  TEAEs Leading to DC: 0 n (%)
  TEAEs, Mild: 0 n (%)
  TEAEs, Moderate: 0 n (%)
  TEAEs, Not related: 0 n (%)
  TEAEs, Related: 0 n (%)
  TEAEs, Severe: 0 n (%)
SRD single dose 70 mg (n = 6)
  Deaths: 0 n (%)
  Serious TEAEs: 0 n (%)
  Serious TEAEs, Not related: 0 n (%)
  Serious TEAEs, Related: 0 n (%)
  TEAEs: 3 (50.0) n (%)
  TEAEs Leading to DC: 0 n (%)
  TEAEs, Mild: 3 (50.0) n (%)
  TEAEs, Moderate: 0 n (%)
  TEAEs, Not related: 2 (33.3) n (%)
  TEAEs, Related: 1 (16.7) n (%)
  TEAEs, Severe: 0 n (%)
SRD single dose 105 mg (n = 6)
  Deaths: 0 n (%)
  Serious TEAEs: 0 n (%)
  Serious TEAEs, Not related: 0 n (%)
  Serious TEAEs, Related: 0 n (%)
  TEAEs: 1 (16.7) n (%)
  TEAEs Leading to DC: 0 n (%)
  TEAEs, Mild: 1 (16.7) n (%)
  TEAEs, Moderate: 0 n (%)
  TEAEs, Not related: 1 (16.7) n (%)
  TEAEs, Related: 0 n (%)
  TEAEs, Severe: 0 n (%)
SRD, overall TAK‐020 group
  percentage of subjects who experienced TEAEs: 11.1%
